Reference: patent US10350204B2, “Methods for treating cognitive deficits associated with fragile X syndrome” (Wisconsin Alumni Research Foundation, priority 2015, dated 2019)

Experiments:
[1] = tested on: NSCs of Fmr1 KO and wildtype mice; assay: In vivo cell fate analysis of BrdU+ cells (NeuN, S100β); set-up: species or system mouse; conditions: 10 mg/kg, 5 injections, analyzed 4 weeks after last treatment
Method: (§1) All animal procedures were performed according to protocols approved by the University of Wisconsin-Madison Care and Use Committee. All mice were on C57B/L6 genetic background. The Fmr1 KO/Nestin-GFP mice (Fmr1−/y::Nestin-GFP) were created by crossing female Fmr1 heterozygous KO mice (Fmr1+/−) (59) with homozygous Nestin-GFP transgenic males (60). Generation of FMRP inducible conditional mutant mice (Fmr1loxP/y::Nestin-CreERT2::Rosa26-tdt) and tamoxifen injections to induce recombination were performed as described (12). To induce recombination, mice (6-weeks old) received Tamoxifen (Sigma-Aldrich) daily for 5 d (160 mg/kg) as described (12). Nutlin-3 (10 mg/kg) was given to 7-8 week-old mice or 20-week old mice through IP injections every other day for 5 injections and sacrificed at either 24 hours, 4 weeks, 12, or 20 weeks after the last injection. For NSC differentiation analysis, mice also received four BrdU injections (100 mg/kg) between day 2 and 3 of Nutlin-3 injections. To induce recombination in FMRP inducible conditional mutant mice (Fmr1^loxP/y::Nestin-CreER^T2::Rosa26-tdt) mice, mice 6-weeks old male mice received Tamoxifen (Sigma-Aldrich) daily for 5 days (160 mg kg-1 i.p., 30 mg ml^−1 in 10% ethanol mixed with sunflower oil, SigmaAldrich) based on a published procedure (13). BrdU (Sigma-Aldrich, B5002) was made in a concentration of 20 mg/mL in PBS. Nutlin-3 (Nt3, Cayman Chemical, 10004372) was made in a concentration of 100 mg/mL in dimethyl sulfoxide (DMSO).
Brain tissue processing and histological analysis of mouse brains were performed as described in our publications (11, 12, 61). Briefly mice were euthanized by IP injection of sodium pentobarbital and then transcardially perfused with saline followed by 4% PFA. Brains were dissected out, post-fixed overnight in 4% PFA, and equilibrated in 30% sucrose. 40 μm brain sections were generated using a sliding microtome and stored as floating sections in cryoprotectant solution (glycerol, ethylene glycol, and 0.1M phosphate buffer, pH 7.4, 1:1:2 by volume). We performed immunohistological analysis on 1-in-6 serial floating brain sections (240 μm apart). […]
Phenotypic analysis of tdT+ cells was performed as described 3,4. Briefly, at least 50 tdT+ cells in the DG were randomly selected, and their colocalization with cell-lineage markers (e.g., double labeling with GFAP) was determined using Nikon A1 confocal microscope and quantified using Image J software (NIH). […] Briefly, at least 50 BrdU+ cells in the DG were randomly selected, and the colocalization of BrdU with cell-lineage markers (NeuN or S100β) was determined using Nikon A1 confocal microscope and quantified using Image J software (NIH). […]

[2] = tested on: Fmr1 KO and wildtype NPCs; assay: Western blot analyses of p-AKT, p-MDM2, MDM2 and P53 in NPCs; type: cell-based, mouse
Method: NPCs were isolated from the dentate gyms of 8 to 10-week-old male Fmr1 KO mice and wild-type (wildtype) littermate controls based on our published methods (12, 64). Independently isolated cells serve as biological replicates. Proliferation and differentiation of NPCs was analyzed as described (11, 12, 61). We used only early passage cells (between passage 4 and 10) and only the same passage numbers of wildtype and Fmr1 KO cells. For each experiment, triplicate wells of cells were analyzed, and results were averaged as one data point (n=1). At least 3 independent biological replicates were used (n=3) for statistical analyses.
Protein samples were separated on SDS-PAGE gels (Bio-Rad), transferred to PVDF membranes (Millipore), and incubated with primary antibodies. After incubation with fluorescence-labeled secondary antibodies (Li—CoR), the membranes were imaged using Li—CoR and quantification was performed using ImageJ software. At least n=3 independent blots were used for statistical analysis.
For loading controls, membranes were probed with the mouse antibody against GAPDH.

[3] = tested on: NSCs of Fmr1 KO and wildtype mice; assay: In vivo NSC activation in the adult dentate gyrus (GFP+GFAP+MCM2+); set-up: species or system mouse; conditions: 10 mg/kg every other day, 5 injections over 9 days
Method: All animal procedures were performed according to protocols approved by the University of Wisconsin-Madison Care and Use Committee. All mice were on C57B/L6 genetic background. The Fmr1 KO/Nestin-GFP mice (Fmr1−/y::Nestin-GFP) were created by crossing female Fmr1 heterozygous KO mice (Fmr1+/−) (59) with homozygous Nestin-GFP transgenic males (60). Generation of FMRP inducible conditional mutant mice (Fmr1loxP/y::Nestin-CreERT2::Rosa26-tdt) and tamoxifen injections to induce recombination were performed as described (12). To induce recombination, mice (6-weeks old) received Tamoxifen (Sigma-Aldrich) daily for 5 d (160 mg/kg) as described (12). Nutlin-3 (10 mg/kg) was given to 7-8 week-old mice or 20-week old mice through IP injections every other day for 5 injections and sacrificed at either 24 hours, 4 weeks, 12, or 20 weeks after the last injection. […]
The total numbers of GFP^+ or tdT^+ cells in the dentate gyms of each animal were counted on a Zeiss Apotome microscope using unbiased stereology (StereoInvestigator software, MBF Biosciences, Inc). […] Dentate gyms volume was measured using StereoInvestigator as described (11, 12). […] Briefly, at least 50 GFP^+ or BrdU^+ cells in the dentate gyms were randomly selected, and their colocalization with cell-lineage markers was determined using a Nikon A1 confocal microscope and quantified using ImageJ software (NIH).

[4] = Overall health and body weight of treated mice; type: in vivo, mouse; conditions: wildtype and Fmr1 KO mice; Nutlin-3 10 mg/kg, 5 injections
Method: as §1, with “Nutlin-3 (Nt3, Cayman Chemical, 10004372) was made in a concentration of 100 mg/mL in dimethyl sulfoxide (DMSO).” left out

[5] = tested on: Fmr1 KO and wildtype NPCs; assay: BrdU proliferation assay of cultured NPCs; type: cell-based, mouse
Method: We used only early passage cells (between passage 4 and 10) and only the same passage numbers of wild type (WT) and Fmr1 KO cells. For each experiment, triplicate wells of cells were analyzed, and results were averaged as one data point (n=1). At least 3 independent experiments (n=3) were performed and used for statistical analyses for each analysis. To study cell proliferation, we dissociated neural stem cells with trypsin and plated them on poly-L-ornithine and laminin-coated 24 well plate (Scientific fisher, 87721) at a density of 100,000 cells per well in proliferation medium. At 20 h post-plating, 5 μM 5-bromo-2.′-deoxyuridine (BrdU, Sigma-Aldrich) was added into the culture medium for 6 h. NPCs were then washed with PBS and fixed with 4% paraformaldehyde for 30 min at room temperature, followed by immunohistochemical analysis. To detect BrdU incorporation, fixed cells were pretreated with 1M HCl for 30 min at 37° C., and then washed with borate buffer, pH 8.5, for 30 min. We then followed our standard immunohistochemistry protocol^10. BrdU incorporation assay was determined using an Operetta high content imaging system (PerkinElmer, Inc) and Harmony quantification software (PerkinElmer, Inc). The percentage of proliferating cells was defined as the number of BrdU-labeled cells divided by total DAPI-positive cells.
For proliferation assay in vitro, 1 μM MK2206 (Selleckchem, S1078) (AKT phosphorylation inhibitor), or 2 μM Nutlin-3 (Nt3, Selleckchem, 51061) (Mdm2 inhibitor), or 1 μM RG7112 (Selleckchem, S7030) (Mdm2 inhibitor) or YH239-EE (Selleckchem 57489) (4 μM) (Mdm2 inhibitor) was added to proliferating NPCs at 6 hours post-plating. Cells were then pulse labeled 18 hours later with 5 μM 5-bromo-2′-deoxyuridine (BrdU, Sigma-Aldrich, B5002) and incubated for 6 hours in the presence of inhibitor, followed by fixation, staining, and quantification.

COc1ccc(C2=N[C@@H](c3ccc(Cl)cc3)[C@@H](c3ccc(Cl)cc3)N2C(=O)N2CCNC(=O)C2)c(OC(C)C)c1 [Nutlin-3]
astroglial differentiation (S100β+ among BrdU+ cells) ([1]; Fmr1 KO mice): rescued both neuronal and astroglial differentiation
neuronal differentiation (NeuN+ among BrdU+ cells) ([1]; Fmr1 KO mice): rescued both neuronal and astroglial differentiation
astroglial differentiation (S100β+ among BrdU+ cells) ([1]; wildtype mice): without any significant effect on wildtype mice
neuronal differentiation (NeuN+ among BrdU+ cells) ([1]; wildtype mice): without any significant effect on wildtype mice
P53 expression ([2]; Fmr1 KO NPCs): increased P53
p-MDM2 (Ser166) ([2]; Fmr1 KO NPCs): did not affect p-MDM2 levels
P53 expression ([2]; wildtype NPCs): no significant effect on wildtype cells
p-MDM2 (Ser166) ([2]; wildtype NPCs): did not affect p-MDM2 levels
NSC activation (percentage of activated NSCs among total NSCs) ([3]; Fmr1 KO mice): specifically reduced NSC activation in Fmr1 KO mice to wildtype levels
NSC activation (percentage of activated NSCs among total NSCs) ([3]; wildtype mice): no significant effect on wildtype mice
overall health and body weight [4]: no significant effect on overall health and body weight
cell proliferation (BrdU+ cells) ([5]; Fmr1 KO NPCs, 1 μM MK2206, 2 μM Nutlin-3, 1 μM RG7112, 4 μM YH239-EE): reduced the proliferation
cell proliferation (BrdU+ cells) ([5]; wildtype NPCs, 1 μM MK2206, 2 μM Nutlin-3): without a significant effect on wildtype NPCs
